Reference: publication PMC10528385 (Antiviral research, 2023)

Biological target: NA of A/Washington/01/2007 A(H3N2), WT (Influenza A virus, UniProt A7UPN3)
Assay: biochemical

## CC(=O)N[C@H]1[C@H]([C@H](O)[C@H](O)CO)OC(C(=O)O)=C[C@@H]1N=C(N)N [Zanamivir, zanamivir]
  IC50: 1.1 ± 0.1 nM
